Laboratory results from US5677419A, “Cyclic vasoactive peptide analogs” (Hoffmann-La Roche Inc., priority 1994, dated 1997).
Where a SMILES comes first, the peptide text is derived from it. Bridges are numbered along the chain shown (N, C = ends). [ ]: non-standard residue; d: D form. Nle = CCCC[C@H](N)C(=O)O

Tests used:
[1] = system: guinea pig tracheal smooth muscle; test: Tracheal relaxant activity of VIP analogs on isolated guinea pig tracheal rings; type: cell-based; conditions: cumulative concentration response, relaxation as % of maximum response to VIP (10^-6 M=100%), three tissues pooled, linear regression
In short: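 Male guinea pig tracheal rings under 1.5 g resting tension in Krebs at 37° C, 95% O2/5% CO2, isometric tension. Cumulative concentration-response curves; relaxation as % of response to 10^-6 M VIP added at end; three tissues pooled, EC50 by linear regression.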

guinea pigs = test: In vivo bronchodilator activity by tracheal instillation against histamine challenge; parameters: species or system guinea pig; conditions: anesthetized male guinea pigs, inhibition of histamine (i.v.)-induced rise in tracheal pressure
In short: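 Urethane-anaesthetised male Hartley guinea pigs (400-600 g) received compound in water by intratracheal instillation, then were paralysed, ventilated and challenged with histamine […] i.v. Tracheal pressure change gave % inhibition (≥3 animals/group); ED50 from log dose-response; duration as time until inhibition fell to 40%.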

| EC50 [1] | Compound | Bronchodilator activity of VIP analogs in guinea pigs, ED50 (guinea pigs) |
| --- | --- | --- |
| 0.19 nM | CCCC[C@H](NC(=O)[C@H](CCC(N)=O)NC(=O)[C@H](CCCCN)NC(=O)[C@H](CCCNC(=N)N)NC(=O)[C@H](CC(C)C)NC(=O)[C@H](CCCCN)NC(=O)[C@@H](NC(=O)[C@H](Cc1ccc(O)cc1)NC(=O)[C@H](CC(N)=O)NC(=O)[C@H](CCC(=O)O)NC(=O)[C@@H](NC(=O)[C@H](Cc1ccccc1)NC(=O)[C@@H](NC(=O)[C@H](C)NC(=O)[C@H](CC(=O)O)NC(=O)[C@H](C)NC(=O)[C@H](Cc1c[nH]cn1)NC(C)=O)C(C)C)[C@@H](C)O)[C@@H](C)O)C(=O)N[C@@H](C)C(=O)N[C@H](C(=O)N[C@@H](CCCCN)C(=O)N[C@H]1CCCCNC(=O)C[C@@H](C(=O)N[C@@H](CC(C)C)C(=O)N[C@@H](CCCCN)C(=O)N[C@@H](CCCCN)C(=O)NCC(=O)NCC(=O)N[C@H](C(N)=O)[C@@H](C)O)NC(=O)[C@H](CC(N)=O)NC(=O)[C@H](CC(C)C)NC(=O)[C@H](Cc2ccc(O)cc2)NC1=O)C(C)C [SEQ ID NO:67, Ac-[Ala^2,Glu^8,Lys^12,Nle^17,Asp^25,Leu^26,Lys^27,28,Gly^29,30,Thr^31]-VIP cyclo (Lys^21 →Asp^25)] (Ac-HADAVFTENYTKLRKQ[Nle]AVKKYLNDLKKGGT-NH2; lactam 21-25) | 0.077 μg |
| 0.43 nM | CCCC[C@H](NC(=O)[C@H](CCC(N)=O)NC(=O)[C@H](CCCCN)NC(=O)[C@H](CCCNC(=N)N)NC(=O)[C@H](CC(C)C)NC(=O)[C@H](CCCCN)NC(=O)[C@@H](NC(=O)[C@H](Cc1ccc(O)cc1)NC(=O)[C@H](CC(N)=O)NC(=O)[C@H](CCC(=O)O)NC(=O)[C@@H](NC(=O)[C@H](Cc1ccccc1)NC(=O)[C@@H](NC(=O)[C@H](C)NC(=O)[C@H](CC(=O)O)NC(=O)[C@H](CO)NC(=O)[C@H](Cc1c[nH]cn1)NC(C)=O)C(C)C)[C@@H](C)O)[C@@H](C)O)C(=O)N[C@@H](C)C(=O)N[C@H](C(=O)N[C@@H](CCCCN)C(=O)N[C@H]1CCCCNC(=O)C[C@@H](C(=O)N[C@@H](CC(C)C)C(=O)N[C@@H](CCCCN)C(=O)N[C@@H](CCCCN)C(=O)NCC(=O)NCC(=O)N[C@H](C(N)=O)[C@@H](C)O)NC(=O)[C@H](CC(N)=O)NC(=O)[C@H](CC(C)C)NC(=O)[C@H](Cc2ccc(O)cc2)NC1=O)C(C)C [SEQ ID NO:68, Ac-[Glu^8,Lys^12,Nle^17,Asp^25,Leu^26,Lys^27,28,Gly^29,30,Thr^31]-VIP cyclo (Lys^21 →Asp^25)] (Ac-HSDAVFTENYTKLRKQ[Nle]AVKKYLNDLKKGGT-NH2; lactam 21-25) | 0.04 μg |
| 0.42 nM | CCCC[C@H](NC(=O)[C@H](CCC(N)=O)NC(=O)[C@H](CCCCN)NC(=O)[C@H](CCCNC(=N)N)NC(=O)[C@H](CC(C)C)NC(=O)[C@H](CCCCN)NC(=O)[C@@H](NC(=O)[C@H](Cc1ccc(O)cc1)NC(=O)[C@H](CC(N)=O)NC(=O)[C@H](CC(=O)O)NC(=O)[C@@H](NC(=O)[C@H](Cc1ccccc1)NC(=O)[C@@H](NC(=O)[C@H](C)NC(=O)[C@H](CC(=O)O)NC(=O)[C@H](CO)NC(=O)[C@H](Cc1c[nH]cn1)NC(C)=O)C(C)C)[C@@H](C)O)[C@@H](C)O)C(=O)N[C@@H](C)C(=O)N[C@@H](C)C(=O)N[C@@H](CCCCN)C(=O)N[C@H]1CCCCNC(=O)C[C@@H](C(=O)N[C@@H](CC(C)C)C(=O)N[C@@H](CCCCN)C(=O)N[C@@H](CCCCN)C(=O)N[C@@H](C)C(=O)N[C@@H](C)C(=O)N[C@@H](C)C(N)=O)NC(=O)[C@H](CC(N)=O)NC(=O)[C@H](CC(C)C)NC(=O)[C@H](Cc2ccc(O)cc2)NC1=O [SEQ ID NO:69, Ac-[Lys^12,Nle^17,Ala^19,Asp^25,Leu^26,Lys^27,28,Ala^29-31]-VIP cyclo (Lys^21 →Asp^25)] (Ac-HSDAVFTDNYTKLRKQ[Nle]AAKKYLNDLKKAAA-NH2; lactam 21-25) | 0.04 μg |

| Compound | EC50 [1] | Bronchodilator activity of VIP analogs in guinea pigs, ED50 (guinea pigs) |
| --- | --- | --- |
| CC[C@H](C)[C@H](NC(=O)[C@H](CO)NC(=O)[C@H](CC(N)=O)NC(=O)[C@H](CC(C)C)NC(=O)[C@H](Cc1ccc(O)cc1)NC(=O)[C@H](CCCCN)NC(=O)[C@H](CCCCN)NC(=O)[C@@H](NC(=O)[C@H](C)NC(=O)[C@H](CCSC)NC(=O)[C@H](CCC(N)=O)NC(=O)[C@H](CCCCN)NC(=O)[C@H](CCCNC(=N)N)NC(=O)[C@H](CC(C)C)NC(=O)[C@H](CCCNC(=N)N)NC(=O)[C@@H](NC(=O)[C@H](Cc1ccc(O)cc1)NC(=O)[C@H](CC(N)=O)NC(=O)[C@H](CC(=O)O)NC(=O)[C@@H](NC(=O)[C@H](Cc1ccccc1)NC(=O)[C@@H](NC(=O)[C@H](C)NC(=O)[C@H](CC(=O)O)NC(=O)[C@H](CO)NC(=O)[C@@H](N)Cc1c[nH]cn1)C(C)C)[C@@H](C)O)[C@@H](C)O)C(C)C)C(=O)N[C@@H](CC(C)C)C(=O)N[C@@H](CC(N)=O)C(N)=O [VIP, Vasoactive intestinal peptide, reference compound] | 10 nM | 7.3 μg |
